Laboratory results: patent US9695172B2, “Diazepane derivatives and uses thereof” (Dana-Farber Cancer Institute, Inc., priority 2014, dated 2017)
Where two headings read alike, the source gives them in different places.

How the values were obtained:
AURKC = AURKC (Homo sapiens (Human), UniProt Q9UQB9); test: AURKC IC50; assay type: biochemical
797 = test: Cellular assay, cell viability (ATPlite), 797; assay type: cell-based; details: 797 cell line
Procedure: (§1) The compounds of the invention are also evaluated in the BRD4 dependant cell line for the cellular activity to generate cellular IC50 values.
(§2) Cells (e.g., BRD4 dependant cells) were counted and adjusted to 60,000 cells/mL. Using a Biotek EL406, 50 μL of the cells in media were distributed into 384 well white plates from Thermo. Immediately after plating, compounds of the invention in DMSO were distributed to plates. For large plate sets, cells were returned to a 37° C. incubator while not in use. The compounds were added to plates using a 100 nL 384 well pin transfer manifold on a Janus workstation. Stocks were arrayed in 10 point quadruplicate dose response in DMSO stock in 384-well Greiner compound plates. After addition of the compounds, plates were incubated for three days in a 37° C. incubator. Cell viability was read out using ATPlite from Perkin Elmer. Plates were removed from the incubator and brought to room temperature prior to use. Lyophilized powder was resuspended in lysis buffer and diluted 1:2 with DI water. 25 μL of this solution was added to each well using the Biotek liquid handler. Plates were sealed with adherent aluminum seals prior to vortexing and spinning down at 1000 g for 1 minute. Plates were incubated for 15 minutes at room temperature before signal was read on an Envision Plate Reader.

MV411 = test: Cellular assay, cell viability (ATPlite), MV411; assay type: cell-based; details: MV411 cell line
Procedure: as §1, §2

AURKA = AURKA (Homo sapiens (Human), UniProt O14965); test: AURKA IC50; assay type: biochemical
AURKA, sequence (O14965 whole entry): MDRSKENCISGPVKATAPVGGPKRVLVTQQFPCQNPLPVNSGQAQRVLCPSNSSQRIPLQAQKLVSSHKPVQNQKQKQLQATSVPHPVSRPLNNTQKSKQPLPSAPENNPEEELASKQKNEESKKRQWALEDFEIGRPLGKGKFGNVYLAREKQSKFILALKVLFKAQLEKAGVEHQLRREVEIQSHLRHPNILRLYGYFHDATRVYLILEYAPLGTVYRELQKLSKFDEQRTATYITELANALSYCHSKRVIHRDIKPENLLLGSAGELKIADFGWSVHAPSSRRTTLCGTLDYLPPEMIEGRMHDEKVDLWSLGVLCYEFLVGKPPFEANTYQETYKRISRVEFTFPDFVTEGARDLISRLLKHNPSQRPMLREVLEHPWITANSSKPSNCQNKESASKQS

BRD4 = BRD4 (Homo sapiens (Human), UniProt O60885); test: BRD4 IC50 (acetyl-histone binding assay)
Procedure: (§3) Assays were performed with minor modifications from the manufacturer's protocol (PerkinElmer, USA). All reagents were diluted in 50 mM HEPES, 150 mM NaCl, 0.1% w/v BSA, and 0.01% w/v Tween 20 at pH 7.5 and allowed to equilibrate to room temperature prior to addition to plates. After addition of Alpha beads to master solutions, all subsequent steps were performed in low light conditions. […] Addition to wells was performed with either a multichannel pipet (for optimization experiments) or a Biotek EL406 liquid handler. After a 1000-rpm spin-down for 1 minute, 100 nL of the solutions of the compounds of the invention from stock plates were added by pin transfer using a Janus Workstation (PerkinElmer, USA). The streptavidin-coated donor beads (25 μg/ml final) were added as with previous solution in a 2×, 10 μL volume. Following this addition, the plates were sealed with foil to block light exposure and to prevent evaporation. The plates were spun down again at 1000 rpm for 1 minute. Next, the plates were incubated in the room with the plate reader (for temperature equilibration) for 1.5 hour prior to reading the assay.

BRDT = BRDT (Homo sapiens (Human), UniProt Q58F21); test: BRDT IC50; assay type: binding
Procedure: as §3

AURKB = AURKB (Homo sapiens (Human), UniProt Q96GD4); test: AURKB IC50; assay type: biochemical
AURKB, sequence (Q96GD4 whole entry): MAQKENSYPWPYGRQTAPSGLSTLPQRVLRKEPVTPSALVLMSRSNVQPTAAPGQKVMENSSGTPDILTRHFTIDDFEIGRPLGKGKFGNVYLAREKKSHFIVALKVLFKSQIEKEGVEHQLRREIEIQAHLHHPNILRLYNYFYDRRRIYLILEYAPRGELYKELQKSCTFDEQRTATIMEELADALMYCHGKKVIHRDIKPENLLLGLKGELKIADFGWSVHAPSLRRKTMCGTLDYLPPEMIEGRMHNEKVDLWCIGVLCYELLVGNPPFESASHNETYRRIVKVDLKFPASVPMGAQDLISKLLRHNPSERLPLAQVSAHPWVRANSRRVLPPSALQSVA

NOMO-1 = test: Cellular assay, cell viability (ATPlite), NOMO-1; assay type: cell-based; details: NOMO-1 cell line
Procedure: as §1, §2

MOLM-13 = test: Cellular assay, cell viability (ATPlite), MOLM-13; assay type: cell-based; details: MOLM-13 cell line
Procedure: as §1, §2

TF-1 = test: Cellular assay, cell viability (ATPlite), TF-1; assay type: cell-based; details: TF-1 cell line
Procedure: as §1, §2

Kasumi-1 = test: Cellular assay, cell viability (ATPlite), Kasumi-1; assay type: cell-based; details: Homo sapiens; Kasumi-1 cell line
Procedure: as §1, §2

LRRK2 = LRRK2 (Homo sapiens (Human), UniProt Q5S007); test: LRRK2 IC50; assay type: biochemical
LRRK2, sequence (Q5S007 whole entry): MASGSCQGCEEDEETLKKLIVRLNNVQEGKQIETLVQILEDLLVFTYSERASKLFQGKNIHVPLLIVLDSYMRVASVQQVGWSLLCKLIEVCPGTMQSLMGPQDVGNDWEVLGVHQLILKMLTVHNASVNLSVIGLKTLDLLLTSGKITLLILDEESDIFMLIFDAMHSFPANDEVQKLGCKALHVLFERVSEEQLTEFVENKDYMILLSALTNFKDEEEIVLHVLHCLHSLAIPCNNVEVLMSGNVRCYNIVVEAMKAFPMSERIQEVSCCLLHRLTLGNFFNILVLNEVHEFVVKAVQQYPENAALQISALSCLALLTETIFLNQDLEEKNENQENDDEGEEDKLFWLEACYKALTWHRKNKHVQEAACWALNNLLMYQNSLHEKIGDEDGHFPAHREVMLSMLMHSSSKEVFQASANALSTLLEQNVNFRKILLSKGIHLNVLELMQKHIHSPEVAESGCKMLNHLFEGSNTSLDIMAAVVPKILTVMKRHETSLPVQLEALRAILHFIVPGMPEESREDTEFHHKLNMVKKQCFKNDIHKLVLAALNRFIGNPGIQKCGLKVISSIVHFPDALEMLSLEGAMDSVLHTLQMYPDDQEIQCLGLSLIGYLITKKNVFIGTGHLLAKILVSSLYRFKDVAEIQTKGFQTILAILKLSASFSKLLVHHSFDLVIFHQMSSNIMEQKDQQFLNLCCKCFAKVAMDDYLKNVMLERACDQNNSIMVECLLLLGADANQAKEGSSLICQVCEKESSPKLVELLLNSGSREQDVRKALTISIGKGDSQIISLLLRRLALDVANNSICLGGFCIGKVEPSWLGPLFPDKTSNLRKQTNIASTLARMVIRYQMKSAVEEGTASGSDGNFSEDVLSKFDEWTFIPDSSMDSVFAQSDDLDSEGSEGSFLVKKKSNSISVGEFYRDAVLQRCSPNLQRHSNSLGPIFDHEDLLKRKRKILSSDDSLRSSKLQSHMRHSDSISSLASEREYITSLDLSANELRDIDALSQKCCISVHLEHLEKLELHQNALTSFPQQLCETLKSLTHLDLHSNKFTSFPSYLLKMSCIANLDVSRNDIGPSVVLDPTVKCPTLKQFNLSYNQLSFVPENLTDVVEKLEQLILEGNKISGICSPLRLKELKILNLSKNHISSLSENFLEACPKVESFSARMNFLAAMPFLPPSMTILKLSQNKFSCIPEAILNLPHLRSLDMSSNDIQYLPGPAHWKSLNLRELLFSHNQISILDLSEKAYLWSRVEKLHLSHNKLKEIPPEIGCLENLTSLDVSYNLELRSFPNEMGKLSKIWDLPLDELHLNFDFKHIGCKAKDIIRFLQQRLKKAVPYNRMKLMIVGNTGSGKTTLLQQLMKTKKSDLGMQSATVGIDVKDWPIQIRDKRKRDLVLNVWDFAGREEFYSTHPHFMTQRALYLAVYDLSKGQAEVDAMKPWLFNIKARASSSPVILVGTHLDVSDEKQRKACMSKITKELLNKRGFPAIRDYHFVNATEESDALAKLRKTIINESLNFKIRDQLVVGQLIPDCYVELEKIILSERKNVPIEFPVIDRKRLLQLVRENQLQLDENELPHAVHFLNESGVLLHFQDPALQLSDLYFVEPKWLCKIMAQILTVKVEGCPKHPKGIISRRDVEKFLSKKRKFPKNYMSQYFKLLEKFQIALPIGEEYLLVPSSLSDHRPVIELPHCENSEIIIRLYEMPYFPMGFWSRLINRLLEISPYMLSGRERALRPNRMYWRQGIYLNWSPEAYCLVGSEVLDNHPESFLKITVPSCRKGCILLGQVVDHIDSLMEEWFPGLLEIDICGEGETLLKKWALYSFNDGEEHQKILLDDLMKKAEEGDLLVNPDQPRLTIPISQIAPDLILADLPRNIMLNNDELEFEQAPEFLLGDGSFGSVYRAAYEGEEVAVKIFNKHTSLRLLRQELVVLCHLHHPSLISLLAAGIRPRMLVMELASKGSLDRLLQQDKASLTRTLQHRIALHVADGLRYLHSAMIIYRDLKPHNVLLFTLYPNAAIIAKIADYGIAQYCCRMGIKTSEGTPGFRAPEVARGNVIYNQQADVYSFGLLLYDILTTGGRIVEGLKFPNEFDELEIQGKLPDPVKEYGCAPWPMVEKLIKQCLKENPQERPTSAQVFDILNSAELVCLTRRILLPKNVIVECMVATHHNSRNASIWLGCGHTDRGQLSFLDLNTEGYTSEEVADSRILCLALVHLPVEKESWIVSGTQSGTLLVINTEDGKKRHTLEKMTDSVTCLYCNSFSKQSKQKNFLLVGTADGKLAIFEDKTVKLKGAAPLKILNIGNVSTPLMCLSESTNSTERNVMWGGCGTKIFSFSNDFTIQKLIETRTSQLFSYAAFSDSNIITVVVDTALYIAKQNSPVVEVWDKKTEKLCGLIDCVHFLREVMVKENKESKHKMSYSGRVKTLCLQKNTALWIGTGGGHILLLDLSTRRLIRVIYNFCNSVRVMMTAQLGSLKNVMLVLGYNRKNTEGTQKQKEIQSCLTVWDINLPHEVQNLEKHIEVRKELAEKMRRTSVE

[1] = first BRD4 value listed for the compound
[2] = second BRD4 value listed for the compound

AURKC, sequence (Q9UQB9 whole entry): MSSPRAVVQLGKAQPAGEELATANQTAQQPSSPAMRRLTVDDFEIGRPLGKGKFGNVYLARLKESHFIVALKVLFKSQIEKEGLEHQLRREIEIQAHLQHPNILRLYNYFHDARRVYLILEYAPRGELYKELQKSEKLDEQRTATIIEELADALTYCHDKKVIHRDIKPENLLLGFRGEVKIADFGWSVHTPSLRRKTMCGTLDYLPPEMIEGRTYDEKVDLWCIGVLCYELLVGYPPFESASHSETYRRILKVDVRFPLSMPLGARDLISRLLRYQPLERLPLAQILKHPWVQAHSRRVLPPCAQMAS

| Compound | IC50 (AURKC) [µM] | IC50 797 [µM] | IC50 (MV411) [µM] | IC50 (AURKA) [µM] | IC50 (BRD4; [1]) [µM] | IC50 (BRD4; [2]) [µM] | IC50 (BRDT) [µM] | IC50 (AURKB) [µM] | IC50 (NOMO-1) [µM] | IC50 (MOLM-13) [µM] | IC50 (MV411; Homo sapiens, MV4-11) [µM] | IC50 (TF-1; Homo sapiens) [µM] | IC50 (Kasumi-1) [µM] | IC50 (NOMO-1; Homo sapiens) [µM] | IC50 (MOLM-13; Homo sapiens) [µM] | IC50 (LRRK2) [µM] | TF-1 IC50 (TF-1; result in words) | IC50 (BRD4) [µM] |
| --- | --- | --- | --- | --- | --- | --- | --- | --- | --- | --- | --- | --- | --- | --- | --- | --- | --- | --- |
| CN1C(=O)c2ccccc2N(C)c2nc(Nc3ccc(S(N)(=O)=O)cc3)ccc21 [Compound 2-221] | > 10 | 9.28 | 3.25 | > 10 | 2.99 | 3.27 | 5.66 | > 10 | > 20 | 10.9 |  |  |  |  |  |  |  |  |
| Cc1sc2c(c1C)C(c1ccc(Cl)cc1)=N[C@@H](CC(=O)OC(C)(C)C)c1nnc(C)n1-2 [JQ1, reference compound] |  | 0.092 |  |  |  |  |  |  |  |  | 0.0656 | 0.109 | 0.0488 | 0.172 | 0.0892 |  |  |  |
| COc1cc(C(=O)N2CCC(N3CCN(C)CC3)CC2)ccc1Nc1ccc2c(n1)N(C)c1ccccc1C(=O)N2C [Compound 3] |  | 2.49 |  |  | 1.37 | 0.813 | 3.68 |  |  |  | 1.42 |  |  | 7.23 | 2.92 | > 10 |  |  |
| COc1cc(C(=O)NC2CCN(C)CC2)ccc1Nc1ccc2c(n1)N(C)c1ccccc1C(=O)N2C [Compound 2-227] |  | 5.76 | 1.95 |  | 2.14 | 1.87 | 5.41 |  | 6.36 | 4.25 |  |  |  |  |  | > 10 |  |  |
| C[C@@H](Oc1cc(-n2cnc3ccc(CN4CCN(C)CC4)cc32)sc1C(N)=O)c1ccccc1C(F)(F)F [GSK461364, reference compound] |  |  |  |  |  |  | > 50 |  |  |  |  |  |  |  |  |  | poor convergence | > 50 |
